Usually IC50 stands for the concentration that inhibits the measured activity by half. Lower therefore signals greater potency.

The target of this test is T1, TNKS1 (Homo sapiens, UniProt O95271).
T1 construct: purchased BPS Bioscience, San Diego, USA 80579 (TNKS1 Histone Ribosylation Assay Kit)
T1 sequence (O95271 1-1327): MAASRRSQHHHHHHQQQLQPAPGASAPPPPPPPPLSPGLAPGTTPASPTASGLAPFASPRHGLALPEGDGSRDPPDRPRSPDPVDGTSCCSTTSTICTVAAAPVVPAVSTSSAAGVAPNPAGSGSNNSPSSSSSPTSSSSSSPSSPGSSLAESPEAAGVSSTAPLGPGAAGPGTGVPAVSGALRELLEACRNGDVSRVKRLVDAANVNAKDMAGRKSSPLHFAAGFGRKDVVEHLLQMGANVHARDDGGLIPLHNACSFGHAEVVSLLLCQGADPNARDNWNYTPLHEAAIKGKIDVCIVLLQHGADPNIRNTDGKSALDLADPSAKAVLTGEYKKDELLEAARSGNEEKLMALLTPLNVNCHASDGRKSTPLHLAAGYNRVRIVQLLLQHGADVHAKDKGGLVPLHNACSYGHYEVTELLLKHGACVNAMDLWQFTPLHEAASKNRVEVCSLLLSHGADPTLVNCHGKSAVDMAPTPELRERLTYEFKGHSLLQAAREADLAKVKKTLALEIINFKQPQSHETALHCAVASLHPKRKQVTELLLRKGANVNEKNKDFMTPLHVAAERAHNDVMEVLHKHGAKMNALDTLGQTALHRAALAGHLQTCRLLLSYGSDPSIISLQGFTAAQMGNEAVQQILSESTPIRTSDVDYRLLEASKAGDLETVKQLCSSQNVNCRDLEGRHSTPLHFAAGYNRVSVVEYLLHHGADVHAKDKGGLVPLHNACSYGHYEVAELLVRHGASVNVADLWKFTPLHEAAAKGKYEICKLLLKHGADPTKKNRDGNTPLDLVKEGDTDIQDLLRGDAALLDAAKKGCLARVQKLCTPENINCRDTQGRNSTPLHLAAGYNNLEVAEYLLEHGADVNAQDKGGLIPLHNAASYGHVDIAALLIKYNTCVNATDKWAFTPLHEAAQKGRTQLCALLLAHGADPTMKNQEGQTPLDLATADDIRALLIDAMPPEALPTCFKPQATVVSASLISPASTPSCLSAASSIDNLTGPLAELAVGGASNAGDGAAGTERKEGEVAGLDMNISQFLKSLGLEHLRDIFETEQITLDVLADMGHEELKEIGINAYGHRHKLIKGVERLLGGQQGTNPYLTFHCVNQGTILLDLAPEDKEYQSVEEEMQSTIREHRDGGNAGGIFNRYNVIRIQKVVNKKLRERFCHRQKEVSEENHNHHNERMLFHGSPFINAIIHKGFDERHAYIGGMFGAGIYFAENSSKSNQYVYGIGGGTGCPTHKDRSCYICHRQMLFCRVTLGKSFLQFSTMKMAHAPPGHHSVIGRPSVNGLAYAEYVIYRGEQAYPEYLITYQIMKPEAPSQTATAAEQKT
Kind of test: TNKS1 Assay B (auto-parsylation, [3H]-NAD+ SPA). The format is biochemical. To be noted: 6 nM TNKS1, auto-parsylation, over night at room temperature.

As for `CNC(=O)c1[nH]cnc1C(=O)N[C@@H]1CC[C@@H](C(=O)Nc2ccc(F)cc2Cl)C[C@@H]1F` (racemic) [Example 31, N^4-{(1α,2α,4β)-4-[(2-chloro-4-fluorophenyl)carbamoyl]-2-fluorocyclohexyl}-N^5-methyl-1H-imidazole-4,5-dicarboxamide], the IC50 came to 150 nM. To `CNC(=O)c1[nH]cnc1C(=O)N[C@@H]1CC[C@@H](C(=O)Nc2ccc(F)cc2Cl)C[C@H]1OC` (racemic) [Example 35, N^4-{(1α,2β,4β)-4-[(2-chloro-4-fluorophenyl)carbamoyl]-2-methoxycyclohexyl}-N^5-methyl-1H-imidazole-4,5-dicarboxamide] belongs above 10000 nM. Take `CNC(=O)c1[nH]cnc1C(=O)N[C@H]1CC[C@H](C(=O)Nc2ccc(F)cc2Cl)CC1(F)F` (single isomer, unassigned) [Example 33, N^4-{(trans)-4-[(2-chloro-4-fluorophenyl)carbamoyl]-2,2-difluorocyclohexyl}-N^5-methyl-1H-imidazole-4,5-dicarboxamide]: it took 720 nM to reach half-maximal inhibition (IC50). With `CNC(=O)c1[nH]cnc1C(=O)NC1CCC(C(=O)Nc2ccc(F)cc2Cl)CC1C` (single isomer, unassigned) [Example 41, N^4-{4-[(2-chloro-4-fluorophenyl)carbamoyl]-2-methylcyclohexyl}-N^5-methyl-1H-imidazole-4,5-dicarboxamide], the IC50 is above 10000 nM. With `O=C(NC1CCC(F)(C(=O)Nc2ccc(F)cc2Cl)CC1)c1cnn2cccnc12` (single isomer, unassigned) [Example 365, N-{4-[(2-chloro-4-fluorophenyl)carbamoyl]-4-fluorocyclohexyl}pyrazolo[1,5-a]pyrimidine-3-carboxamide (single isomer)] the figure was above 10000 nM; with `CNC(=O)c1[nH]cnc1C(=O)NC1CCC(F)(C(=O)Nc2ccc(F)cc2Cl)CC1` (single isomer, unassigned) [Example 366, N^4-{4-[(2-chloro-4-fluorophenyl)carbamoyl]-4-fluorocyclohexyl}-N^5-methyl-1H-imidazole-4,5-dicarboxamide (single isomer)], above 10000 nM.

`CNC(=O)c1[nH]cnc1C(=O)N[C@@H]1CC[C@@H](C(=O)Nc2ccc(F)cc2Cl)CC1(F)F` (stereo in doubt) [Example 32, N^4-{(trans)-4-[(2-chloro-4-fluorophenyl)carbamoyl]-2,2-difluorocyclohexyl}-N^5-methyl-1H-imidazole-4,5-dicarboxamide] returned an IC50 of 360 nM. To `O=C(NCC1CCCO1)c1nc[nH]c1C(=O)N[C@H]1CC[C@H](C(=O)Nc2c(F)cc(F)cc2Cl)CC1` (stereo in doubt) [Example 71, N^5-{trans-4-[(2-chloro-4,6-difluorophenyl)carbamoyl]cyclohexyl}-N^4-[(2R)-tetrahydrofuran-2-ylmethyl]-1H-imidazole-4,5-dicarboxamide] belongs 180 nM; to `CNC(=O)c1nc[nH]c1C(=O)N[C@H]1CC[C@H](C(=O)Nc2ccc(F)cc2Cl)CC1` [Example 1, N^5-{trans-4-[(2-chloro-4-fluorophenyl)carbamoyl]cyclohexyl}-N^4-methyl-1H-imidazole-4,5-dicarboxamide], 73 nM. For `O=C(N[C@H]1CC[C@H](C(=O)Nc2ccc(F)cc2Cl)CC1)c1[nH]cnc1C(=O)N1CC2(CCS2(=O)=O)C1` [Example 22, N-{trans-4-[(2-chloro-4-fluorophenyl)carbamoyl]cyclohexyl}-4-[(1,1-dioxido-1-thia-6-azaspiro[3.3]hept-6-yl)carbonyl]-1H-imidazole-5-carboxamide], the midpoint of inhibition, the IC50, lay at 10 nM. To `O=C(N[C@H]1CC[C@H](C(=O)Nc2ccc(F)cc2Cl)CC1)c1[nH]cnc1C(=O)N1CCC1` [Example 23, 4-(azetidin-1-ylcarbonyl)-N-{trans-4-[(2-chloro-4-fluorophenyl)carbamoyl]cyclohexyl}-1H-imidazole-5-carboxamide] belongs 21 nM; to `COC1CN(C(=O)c2nc[nH]c2C(=O)N[C@H]2CC[C@H](C(=O)Nc3ccc(F)cc3Cl)CC2)C1` [Example 24, 4 N-{trans-4-[(2-chloro-4-fluorophenyl)carbamoyl]cyclohexyl}-4-[(3-methoxyazetidin-1-yl)carbonyl]-1H-imidazole-5-carboxamide], 21 nM. With `O=C(NCCN1CC2(CCO2)C1)c1nc[nH]c1C(=O)N[C@H]1CC[C@H](C(=O)Nc2ccc(F)cc2Cl)CC1` [Example 25, N^5-{trans-4-[(2-chloro-4-fluorophenyl)carbamoyl]cyclohexyl}-N^4-[2-(1-oxa-6-azaspiro[3.3]hept-6-yl)ethyl]-1H-imidazole-4,5-dicarboxamide] the figure was 13 nM; with `CN(C)C1CN(C(=O)c2nc[nH]c2C(=O)N[C@H]2CC[C@H](C(=O)Nc3ccc(F)cc3Cl)CC2)C1` [Example 26, N-{trans-4-[(2-chloro-4-fluorophenyl)carbamoyl]cyclohexyl}-4-{[3-(dimethylamino)azetidin-1-yl]carbonyl}-1H-imidazole-5-carboxamide], 62 nM. With `CNC(=O)c1nc[nH]c1C(=O)N[C@H]1CC[C@H](C(=O)Nc2c(Br)cc(F)c(F)c2F)CC1` [Example 27, N^5-{trans-4-[(6-bromo-2,3,4-trifluorophenyl)carbamoyl]cyclohexyl}-N^4-methyl-1H-imidazole-4,5-dicarboxamide] the figure was 30 nM; with `CNC(=O)c1nc[nH]c1C(=O)N[C@H]1CC[C@H](C(=O)Nc2c(F)cc(F)cc2Br)CC1` [Example 28, N^5-{trans-4-[(6-bromo-2,4-difluorophenyl)carbamoyl]cyclohexyl}-N^4-methyl-1H-imidazole-4,5-dicarboxamide], 68 nM. As to `CNC(=O)c1ncoc1C(=O)N[C@H]1CC[C@H](C(=O)Nc2ccc(F)cc2Cl)CC1` [Example 29, N^5-{trans-4-[(2-chloro-4-fluorophenyl)carbamoyl]cyclohexyl}-N^4-methyl-1,3-oxazole-4,5-dicarboxamide], the IC50 is 650 nM.

The compound `CNC(=O)c1ocnc1C(=O)N[C@H]1CC[C@H](C(=O)Nc2ccc(F)cc2Cl)CC1` [Example 30] had an IC50 above 10000 nM. To `Cc1cc(C)n2ncc(C(=O)NC3CCC(C(=O)Nc4ccc(F)cc4Cl)CC3C)c2n1` (stereo not drawn) [Example 42, N-{4-[(2-chloro-4-fluorophenyl)carbamoyl]-2-methylcyclohexyl}-5,7-dimethylpyrazolo[1,5-a]pyrimidine-3-carboxamide] belongs 120 nM; to `O=C(N[C@H]1CC[C@H](C(=O)Nc2ccc(F)cc2Cl)CC1)c1cnn2cccnc12` [Example 43, N-{trans-4-[(2-chloro-4-fluorophenyl)carbamoyl]cyclohexyl}pyrazolo[1,5-a]pyrimidine-3-carboxamide], 81 nM. With `Cc1cc(C)n2ncc(C(=O)N[C@H]3CC[C@H](C(=O)Nc4ccc(F)cc4Cl)CC3)c2n1` [Example 44, N-{trans-4-[(2-chloro-4-fluorophenyl)carbamoyl]cyclohexyl}-5,7-dimethylpyrazolo[1,5-a]pyrimidine-3-carboxamide] the figure was 48 nM. With `O=C(N[C@H]1CC[C@H](C(=O)Nc2ccc(F)cc2Cl)CC1)c1cnc2cccnn12` [Example 45, N-{trans-4-[(2-chloro-4-fluorophenyl)carbamoyl]cyclohexyl}imidazo[1,2-b]pyridazine-3-carboxamide] the figure was 310 nM; with `CC(=O)c1cnc2c(C(=O)N[C@H]3CC[C@H](C(=O)Nc4ccc(F)cc4Cl)CC3)cnn2c1C` [Example 46, 6-acetyl-N-{trans-4-[(2-chloro-4-fluorophenyl)carbamoyl]cyclohexyl}-7-methylpyrazolo[1,5-a]pyrimidine-3-carboxamide], 65 nM. On to `O=C(N[C@H]1CC[C@H](C(=O)Nc2ccc(F)cc2Cl)CC1)c1cnc2ccc(Cl)nn12` [Example 47, 6-chloro-N-{trans-4-[(2-chloro-4-fluorophenyl)carbamoyl]cyclohexyl}imidazo[1,2-b]pyridazine-3-carboxamide], for which half-maximal inhibition (IC50) required 530 nM.

For the origin of these results see US20180148418A1, “AMIDO-SUBSTITUTED CYCLOHEXANE DERIVATIVES” (Bayer Pharma Aktiengesellschaft, priority 2015, published 2018).
